Measurements as given in patent publication US20250352615A1, “COMPOSITIONS AND METHODS FOR THE MODULATION OF PIEZO1 AND TRPV4” (Duke University, priority 2021, published 2025).

Columns and labels:
PLA2 = PLA2 activity in living pancreatic acini (Bis-BODIPY FL C11-PC); format: cell-based, mouse; details: Yoda1 25 μM
Procedure: The fluorogenic PLA2 substrate (Bis-BODIPY FL C11-PC) (Thermo Fisher Scientific; B7701) was used to monitor PLA2 activity in living cells. The pancreatic acini were incubated with Bis-BODIPY FL C11-PC in HBSS buffer with 2 mM Ca^2+ for 30 minutes. HBSS buffer with 2 mM Ca^2+ was used during imaging. A Zeiss Axio observer Z1 with a high-sensitivity EMCCD camera with a ×40/0.75 EC-Plan-NeoFluar DIC objective was used to capture the Z-stack images with stack thickness of 4 μm at an interval of 10 seconds with 480 nm excitation and 525 nm emission filter. The captured images were analyzed with MetaMorph software (Molecular Devices).

pancreas = test: Yoda1 pancreatic duct infusion pancreatitis model; format: in vivo, mouse; details: Yoda1 0.4 mg/kg infused into the pancreatic duct
Procedure: Laparotomy surgery was performed both in pancreatic partial duct ligation- and retrograde pancreatic duct infusion-mediated pancreatitis experiments as previously described by Romac et al., Nat. Commun. 9(1):1715 (2018). Yoda1 at a dose of 0.4 mg/kg in 50 μL 1.1% dimethylsulfoxide, 4.8% ethanol, and 94.1% buffered saline was injected. In Yoda1-mediated pancreatitis, the midportion of the pancreas (about 100-125 mg) was carefully excised and used for biochemical assays and histological staining. Histological scoring was evaluated from the entire section. Partial PDL was performed as previously described. Using a stereo microscope, the tail region of the pancreas was visualized, and the main pancreatic duct was ligated carefully with 6-0 Prolene suture without damaging the left portal vein that separates the splenic lobe and gastroduodenal part of the pancreas. […]
Serum amylase concentration was measured by a colorimetric method after reaction with substrate using the Phadebas Amylase Test Tablet (Magle Life Sciences) and the Tecan-infinite M200 Pro plate reader.
MPO was measured using previously described methods with modifications. […] To calculate the mU of MPO/mg of protein, the protein concentrations of the supernatants were measured using the Micro BCA Protein Assay Kit (Thermo Fisher Scientific; 23235). […]

Piezo1 = target: T1, Piezo1 (Homo sapiens, UniProt Q92508); test: Calcium imaging of Piezo1-mediated [Ca2+]i in human PSCs; format: cell-based; details: Yoda1 25 μM, quiescent PSCs
T1 construct: Fresh, human pancreatic tissue was digested with collagenase as described above with modifications; endogenous in cells; host or cells: primary human pancreatic stellate cells from fresh human pancreatic tissue
T1 sequence (Q92508 whole entry): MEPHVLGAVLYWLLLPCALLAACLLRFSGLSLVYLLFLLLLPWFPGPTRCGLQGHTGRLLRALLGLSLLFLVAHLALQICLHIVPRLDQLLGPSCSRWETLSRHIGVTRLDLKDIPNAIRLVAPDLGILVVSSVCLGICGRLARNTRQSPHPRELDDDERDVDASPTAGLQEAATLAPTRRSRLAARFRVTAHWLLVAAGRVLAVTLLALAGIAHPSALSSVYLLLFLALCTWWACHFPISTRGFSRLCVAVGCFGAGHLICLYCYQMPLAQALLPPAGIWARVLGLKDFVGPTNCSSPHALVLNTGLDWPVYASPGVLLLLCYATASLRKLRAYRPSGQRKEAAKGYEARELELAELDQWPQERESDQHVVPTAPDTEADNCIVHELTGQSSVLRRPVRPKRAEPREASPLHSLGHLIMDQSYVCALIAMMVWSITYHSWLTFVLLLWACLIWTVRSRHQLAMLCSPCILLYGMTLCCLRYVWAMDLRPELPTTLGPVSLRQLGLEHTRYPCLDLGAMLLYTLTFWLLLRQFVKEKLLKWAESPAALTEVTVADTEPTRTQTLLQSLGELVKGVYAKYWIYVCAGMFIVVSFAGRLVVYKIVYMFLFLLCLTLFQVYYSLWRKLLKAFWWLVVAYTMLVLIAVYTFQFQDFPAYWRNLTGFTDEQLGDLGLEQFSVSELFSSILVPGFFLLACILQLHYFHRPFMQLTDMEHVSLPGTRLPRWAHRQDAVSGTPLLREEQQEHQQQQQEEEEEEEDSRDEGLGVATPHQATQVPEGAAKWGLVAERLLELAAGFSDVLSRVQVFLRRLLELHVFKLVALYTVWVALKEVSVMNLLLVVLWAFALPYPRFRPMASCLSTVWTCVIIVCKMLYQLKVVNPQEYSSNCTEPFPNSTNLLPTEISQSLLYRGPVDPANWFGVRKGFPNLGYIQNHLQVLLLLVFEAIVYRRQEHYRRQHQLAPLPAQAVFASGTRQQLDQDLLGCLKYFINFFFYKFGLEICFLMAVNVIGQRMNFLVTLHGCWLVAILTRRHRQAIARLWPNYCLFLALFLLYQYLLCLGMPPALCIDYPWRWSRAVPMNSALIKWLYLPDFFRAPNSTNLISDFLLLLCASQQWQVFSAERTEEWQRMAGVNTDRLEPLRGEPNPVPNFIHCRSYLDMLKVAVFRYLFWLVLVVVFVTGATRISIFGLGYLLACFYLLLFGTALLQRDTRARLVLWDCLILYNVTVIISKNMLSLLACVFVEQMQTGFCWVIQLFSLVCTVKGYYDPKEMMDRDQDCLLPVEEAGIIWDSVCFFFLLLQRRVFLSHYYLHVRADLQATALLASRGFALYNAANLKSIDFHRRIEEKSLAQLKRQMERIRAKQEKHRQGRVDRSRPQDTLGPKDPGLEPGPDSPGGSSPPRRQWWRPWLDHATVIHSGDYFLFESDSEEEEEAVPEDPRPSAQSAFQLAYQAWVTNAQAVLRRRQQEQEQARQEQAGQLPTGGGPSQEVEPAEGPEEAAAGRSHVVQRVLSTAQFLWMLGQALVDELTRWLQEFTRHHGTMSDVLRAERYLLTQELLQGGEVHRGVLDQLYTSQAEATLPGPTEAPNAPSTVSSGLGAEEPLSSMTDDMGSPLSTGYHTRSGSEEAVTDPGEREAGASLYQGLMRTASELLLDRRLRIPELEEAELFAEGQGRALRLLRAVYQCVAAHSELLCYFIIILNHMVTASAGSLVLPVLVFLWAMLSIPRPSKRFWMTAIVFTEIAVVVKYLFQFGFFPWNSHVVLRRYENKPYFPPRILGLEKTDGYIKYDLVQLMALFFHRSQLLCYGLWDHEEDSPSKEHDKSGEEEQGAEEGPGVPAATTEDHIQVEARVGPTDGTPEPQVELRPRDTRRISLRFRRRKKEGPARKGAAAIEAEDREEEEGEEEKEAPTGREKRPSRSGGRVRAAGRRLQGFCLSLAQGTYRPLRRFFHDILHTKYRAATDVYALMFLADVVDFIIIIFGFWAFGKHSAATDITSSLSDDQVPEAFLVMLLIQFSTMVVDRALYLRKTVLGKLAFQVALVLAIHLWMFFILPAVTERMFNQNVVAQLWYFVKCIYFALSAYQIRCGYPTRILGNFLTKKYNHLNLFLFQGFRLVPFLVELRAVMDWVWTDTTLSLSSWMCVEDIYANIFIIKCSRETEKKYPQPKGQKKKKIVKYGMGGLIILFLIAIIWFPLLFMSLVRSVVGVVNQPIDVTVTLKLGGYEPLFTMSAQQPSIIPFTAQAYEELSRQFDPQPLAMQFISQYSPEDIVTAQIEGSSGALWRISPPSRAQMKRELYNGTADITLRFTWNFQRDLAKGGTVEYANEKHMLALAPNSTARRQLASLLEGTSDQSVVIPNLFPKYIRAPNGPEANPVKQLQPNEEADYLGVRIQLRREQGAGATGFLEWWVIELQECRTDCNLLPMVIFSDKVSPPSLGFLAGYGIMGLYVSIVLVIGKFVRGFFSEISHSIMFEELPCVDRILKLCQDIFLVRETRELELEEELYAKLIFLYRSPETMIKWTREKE
Procedure: Mouse and human PSCs were isolated using collagenase digestion. Modified Krebs Henseleit Buffer (KHB) solution (100 mL) was prepared as previously described by Romac et al., Nat. Commun. 9(1):1715 (2018). Pancreatic tissue was digested with 2 mg of collagenase NB 8 (SERVA, catalog 17456) dissolved in 10 mL of modified KHB solution containing 1 mg soybean trypsin inhibitor (SBTI 1-S; Millipore Sigma, catalog T9003) and 20 mg BSA (Thermo Fisher Scientific; BP1600-100). Digestion solution (5 mL) was used to inflate the pancreas. Pancreas with 5 mL of digestion solution was incubated in a shaking water bath for 10 minutes at 37° C. The solution was then discarded. The pancreas tissue was cut into small pieces and digested with fresh 5 mL digestion buffer. Tissue was incubated in a shaking water bath for 40 minutes at 37° C. The cells were then separated from tissue by pipetting up-down with a 10 mL pipette and passed sequentially through a 70 μm and a 40 μm cell strainer. The filtrate was centrifuged at 150×g for 3 minutes at room temperature. The cells were washed with 10 mL Leibovitz's media (Thermo Fisher Scientific, catalog 11415-064), passed through a 20 μm filter, and centrifuged at 80×g for 3 minutes at room temperature. The supernate was removed, and isolated stellate cells were plated on a thin-layered Matrigel-coated glass bottom culture plate (MatTek, P35G-0-14-C). […] The cell viability following Yoda1 treatment was analyzed using the Live/Dead cell imaging kit (Thermo Fisher Scientific, catalog R37601). […]
Fluid shear stress and mechanical pushing applied to stellate cells were achieved as previously described by Wang et al., J. Clin. Invest. […] The fluid shear stress (T) was calculated using the formula: τ=η×[…] φ for μ-Slide I 0.4 Luer and τ=η×330.4 φ for μ-Slide I 0.2 Luer, where r represents viscosity of the medium and φ represents flow rate (according to the manufacturer's instructions, Ibidi). […]

Clc1cccc(Cl)c1CSc1nnc(-c2cnccn2)s1 [Yoda1]
PLA2 activation in acini from Piezo1aci-KO mice (PLA2): did not stimulate PLA2 activation | onset of PLA2 activation after application (PLA2): ≤ 30 s | time to plateau of PLA2 activity (PLA2): 4 min | intensity of fluorogenic PLA2 substrate (PLA2 activity) (PLA2; WT acini): markedly increased the intensity of the fluorogenic PLA2 substrate | pancreatitis in TRPV4-KO mice (pancreas): did not cause pancreatitis in TRPV4-KO mice | pancreatitis parameters (pancreatic edema, serum amylase, pancreatic MPO, histological scoring) (pancreas; WT mice): increased all pancreatitis parameters measured | [Ca2+]i response to Yoda1 (Piezo1): caused calcium overload in quiescent pancreatic stellate cells
